# pEC50: −log10 of the molar value.
# System: NL4-3 strain of HIV-1
# Assay: Cyto-protection (CellTiter-Glo viability) assay of MT4 cells infected with NL4-3 virus; inhibition of HIV replication
# Assay type: cell-based
# Conditions: Human immunodeficiency virus 1, NL43, 120 h; concentration leading to 50% of cyto-protection; MT4 cells infected with NL4-3 virus; 5 days incubation; CellTiter-Glo; read-out: EC50
# Protocol: Preparation of Virus stock of the NL4-3 strain of HIV-1 (Adachi et al, J Virol, 1986, 59(2):284-91).
# The virus was prepared as described in Lopez et al (Lopez et al, Proc Natl Acad Sci USA., 2006, 103(40):14947-52, by transfecting 2×10^6 293 T cells (CRL-1573, ATCC) with following modifications: 6 μg of NL4-3 proviral DNA molecular clone were mixed with Fugene 6 transfection reagent from Roche, and used according to manufacturer's instructions. Forty eight hours later, transfected cell supernatants were harvested, filtered through 0.45-μm-pore-size filters, quantified for HIV-1 p24 antigen by using a Innotest HIV antigen mAb assay (Ingen) according to manufacturer's instructions, and used in infection experiments.
# Serial dilutions of compounds to be tested were prepared in complete RPMI medium from 10 mM DMSO stock solutions, and I in 96 well Falcon 353072 Microtest[…]distributed in a volume of 20™ tissue culture plate, in order to get 0.5% DMSO final concentration in each well, after the addition of infected cells. Control wells contained also 0.5% DMSO final concentration but no compound.
# MT4 cells (from the NIH AIDS Research and Reference Reagent Program) in RPMI complete medium were counted (10×10^6 cells per well in Falcon 353047 Multiwell™ 24 well) and infected for 2 hours at 37°, at a multiplicity of infection (moi) of 0.0001-0.00001. Cells were then centrifuged 3 min at 3000 rpm, and washed two times in 1 ml PBS to remove viruses that have not entered in cells. Infected cells were resuspended in complete RPMI at 1.25×10^6 cells/ml and 80 μl of infected cells were distributed in each well containing compound to be tested or control wells. The plates were then incubated at 37° for 5 days.
# Assay used to measure the inhibition of HIV replication by the compounds (according to Gregg S. Jones et al., Antimicrobial Agents and Chemotherapy, 2009, 53 (3): 1194-1203).
# After 5 days of incubation, microplates were equilibrated to room temperature for 30 mn and then 50 μl of CellTiter-Glo reagent (Promega Biosciences, Inc., Madison Wis., USA) were added to each well. Cell lysis was carried out at room temperature during 10 min, 150μl of lysates were transferred in Packard Optiplate 96 well, and luminescence was read on a Fluoroskan (Thermo Scientific).
# The EC50, or effective concentration 50, is the concentration of compound leading to 50% of cyto-protection in a Cell-Titer-Glo® viability assay based on MT4 cells infected with NL4-3 virus (table 1).
row,SMILES,pEC50
1,"CC1CCC=C1c1nn(C)c(C(OC(C)(C)C)C(=O)O)c1-c1ccc2c(c1)CCCO2 (centres unmarked) [Example 26, 2-(tert-butoxy)-2-[4-(3,4-dihydro-2H-1-benzopyran-6-yl)-1-methyl-3-(5-methylcyclopent-1-en-1-yl)-1H-pyrazol-5-yl]acetic acid]",6.20
2,"Cn1nc(-c2ccccc2)c(C2=CCC(C)(C)CC2)c1C(OC(C)(C)C)C(=O)O (centres unmarked) [Example 1, 2-(tert-butoxy)-2-[4-(4,4-dimethylcyclohex-1-en-1-yl)-1-methyl-3-phenyl-1H-pyrazol-5-yl]acetic acid]",6.32
3,"CC1CC=C(c2nn(C)c(C(OC(C)(C)C)C(=O)O)c2-c2ccc3c(c2)CCCO3)CC1 (centres unmarked) [Example 31, 2-(tert-butoxy)-2-[4-(3,4-dihydro-2H-1-benzopyran-6-yl)-1-methyl-3-(4-methylcyclohex-1-en-1-yl)-1H-pyrazol-5-yl]acetic acid]",5.42
4,"Cn1nc(C2=CCCC2)c(-c2ccc3c(c2)CCCO3)c1C(OC(C)(C)C)C(=O)O (centres unmarked) [Example 12, 2-(tert-butoxy)-2-[3-(cyclopent-1-en-1-yl)-4-(3,4-dihydro-2H-1-benzopyran-6-yl)-1-methyl-1H-pyrazol-5-yl]acetic acid]",6.62
5,"CC(C)(C)OC(C(=O)O)c1c(-c2ccc3c(c2)CCCO3)c(-c2cccs2)nn1CC(F)(F)F (centres unmarked) [Example 34, 2-(tert-butoxy)-2-[4-(3,4-dihydro-2H-1-benzopyran-6-yl)-3-(thiophen-2-yl)-1-(2,2,2-trifluoroethyl)-1H-pyrazol-5-yl]acetic acid]",5.46
6,"C/C=C/c1nn(C)c(C(OC(C)(C)C)C(=O)O)c1-c1ccc2c(c1)CCCO2 (centres unmarked) [Example 29, 2-(tert-butoxy)-2-[4-(3,4-dihydro-2H-1-benzopyran-6-yl)-1-methyl-3-[(1E)-prop-1-en-1-yl]-1H-pyrazol-5-yl]acetic acid]",5.85
7,"Cn1nc(-c2nccs2)c(-c2ccc3c(c2)CCCO3)c1C(OC(C)(C)C)C(=O)O (centres unmarked) [Example 8, 2-(tert-butoxy)-2-[4-(3,4-dihydro-2H-1-benzopyran-6-yl)-1-methyl-3-(1,3-thiazol-2-yl)-1H-pyrazol-5-yl]acetic acid]",5.43
8,"Cn1nc(C2CCCC2)c(-c2ccc3c(c2)CCCO3)c1C(OC(C)(C)C)C(=O)O (centres unmarked) [Example 19, 2-(tert-butoxy)-2-[3-cyclopentyl-4-(3,4-dihydro-2H-1-benzopyran-6-yl)-1-methyl-1H-pyrazol-5-yl]acetic acid]",5.41
9,"Cc1c(-c2c(-c3cccs3)nn(C)c2C(OC(C)(C)C)C(=O)O)ccc2c1CCCO2 (centres unmarked) [Example 7, 2-(tert-butoxy)-2-[1-methyl-4-(5-methyl-3,4-dihydro-2H-1-benzopyran-6-yl)-3-(thiophen-2-yl)-1H-pyrazol-5-yl]acetic acid]",6.39
10,"Cn1nc(-c2cccs2)c(-c2cc(F)c3c(c2)CCCO3)c1C(OC(C)(C)C)C(=O)O (centres unmarked) [Example 42, 2-(tert-butoxy)-2-[4-(8-fluoro-3,4-dihydro-2H-1-benzopyran-6-yl)-1-methyl-3-(thiophen-2-yl)-1H-pyrazol-5-yl]acetic acid]",5.74
11,"Cn1nc(C2=CCC(C)(C)CC2)c(-c2ccc3c(c2)CCCO3)c1C(OC(C)(C)C)C(=O)O (centres unmarked) [Example 14, 2-(tert-butoxy)-2-[4-(3,4-dihydro-2H-1-benzopyran-6-yl)-3-(4,4-dimethylcyclohex-1-en-1-yl)-1-methyl-1H-pyrazol-5-yl]acetic acid]",5.77
